Read-outs that look alike come from different tables or passages of the source.
What was measured:
[1] = biological target: T1, rat GPR14 (U-II receptor) (Rattus norvegicus, UniProt P49684); settings: agonist peptide, CHO cells transfected with rat GPR14; read-out: FLIPR EC50; cited from earlier work
T1 construct: expressed in transfected cells
T1 sequence (P49684 1-386): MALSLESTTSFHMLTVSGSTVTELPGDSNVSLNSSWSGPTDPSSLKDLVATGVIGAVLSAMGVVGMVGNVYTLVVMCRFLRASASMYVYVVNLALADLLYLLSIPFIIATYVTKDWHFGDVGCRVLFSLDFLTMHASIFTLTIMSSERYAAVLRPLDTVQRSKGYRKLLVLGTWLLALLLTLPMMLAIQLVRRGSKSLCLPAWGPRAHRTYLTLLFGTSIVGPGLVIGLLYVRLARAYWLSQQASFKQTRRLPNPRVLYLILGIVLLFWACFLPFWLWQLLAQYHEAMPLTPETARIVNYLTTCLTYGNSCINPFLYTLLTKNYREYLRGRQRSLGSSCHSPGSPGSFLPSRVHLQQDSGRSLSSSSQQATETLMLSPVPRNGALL

rU-II receptor = biological target: T2, rU-II receptor (Rattus norvegicus, UniProt P49684); settings: agonist peptide; cited from earlier work
T2 sequence (P49684 1-386): T1 sequence (P49684 1-386)

[2] = tested on: isolated arterial rings of rats; settings: read-out: EC50 of contraction; cited from earlier work
[3] = tested on: isolated arterial rings of humans; settings: read-out: EC50 of contraction; cited from earlier work
[4] = biological target: T1, rat GPR14 (U-II receptor); test: Rat UII Calcium Mobilization FLIPR Assay; assay type: cell-based; settings: average value for the compound tested; read-out: Rat UII FLIPR Average IC50
Outline: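 CHO cells stably expressing rat U-II receptor, seeded 24 h before assay, were loaded with FLIPR calcium dye in HBSS/20 mM HEPES/0.1% BSA/2.5 mM probenecid, pH 7.4, for 1 h at 37° C. Calcium mobilization then read by FLIPR at 23° C.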

[5] = biological target: T3, Human UII receptor, 6D9 human rhabdomyosarcoma cells (Homo sapiens, UniProt Q9UKP6); test: Human UII Calcium Mobilization Assay; assay type: cell-based; settings: average value, FLIPR TETRA, read-out: Human UII Ca^+ Mobilization Average IC50
T3 construct: 6D9: isolated by dilution subcloning of RMS13 cells, ATCC® Number: CRL-2061; host or cells: 6D9 human rhabdomyosarcoma cells (subclone of RMS13)
T3 sequence (Q9UKP6 1-389): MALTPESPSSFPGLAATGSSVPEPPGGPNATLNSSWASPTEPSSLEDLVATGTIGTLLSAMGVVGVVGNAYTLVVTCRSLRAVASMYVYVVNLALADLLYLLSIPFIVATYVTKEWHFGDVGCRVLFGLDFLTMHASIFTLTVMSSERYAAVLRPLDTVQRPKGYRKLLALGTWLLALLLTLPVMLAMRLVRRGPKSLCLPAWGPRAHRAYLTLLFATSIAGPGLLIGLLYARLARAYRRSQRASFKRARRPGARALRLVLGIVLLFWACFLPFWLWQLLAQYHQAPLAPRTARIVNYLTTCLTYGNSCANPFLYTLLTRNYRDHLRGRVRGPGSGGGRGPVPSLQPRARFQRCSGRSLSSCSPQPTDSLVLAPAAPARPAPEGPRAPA
Outline: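 6D9 rhabdomyosarcoma cells loaded 45 min at 37° C with calcium dye (1.25 mM probenecid, 0.01% FBS, HBSS/20 mM HEPES). Antagonist and U-II agonist added at room temperature; FLIPR fluorescence read over 4 min; EC50/IC50 fitted. DMSO ≤0.1% final.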

[6] = biological target: T4, endogenous human UII receptor (Homo sapiens, UniProt Q9UKP6); test: Human Radioligand Binding Assay ((^125I)-U-II binding to human skeletal muscle myoblasts)
T4 sequence (Q9UKP6 1-389): T3 sequence (Q9UKP6 1-389)

Row | Compound | IC50 [4] [µM] | IC50 [5] [µM] | Ki [6] [µM] | further results
1 | Acetyl-cyclic[Cys-Phe-Trp-Lys-(2-Nal)-Cys]-NH2 [(Ac)—CFWK(2-NaI)C—NH2, agonist cyclic peptide used at 1 nM to induce Ca2+ mobilization in the rat UII FLIPR assay] |  |  |  | EC50 [1]: 0.00054 ± 0.0002 µM; Ki (rU-II receptor): 0.00012 ± 5e-05 µM
2 | AGTAD-cyclo(CFWKYC)—V [Goby U-II, Urotensin-II isolated from the urophysis of the goby fish (Gillichthys mirabilis) as a 12-mer] |  |  |  | EC50 [2]: < 0.001 µM; EC50 [3]: < 0.001 µM
3 | COc1ccc([C@@H](CCCNC(=O)c2cnoc2C)N2C(=O)c3cccc(N4CCN([C@H](C)c5ccccc5)CC4)c3C2=O)cc1OC [Cpd 144, (R)-5-methyl-isoxazole-4-carboxylic acid (4-(3,4-dimethoxy-phenyl)-4-{1,3-dioxo-4-[4-(1R)-(1-phenyl-ethyl)-piperazin-1-yl]-1,3-dihydro-isoindol-2-yl}-butyl)-amide] | 0.011 | 0.76 |  | Ki ([6]; read-out: Human UII Average Binding Ki, average value, (^125I)-U-II binding to human skeletal muscle myoblasts (HSMM), 25° C., 3 h): 0.13 µM

Second part, led by results:

Row | IC50 [4] [µM] | IC50 [5] [µM] | Ki [6] [µM] | Compound | further results
4 | 0.024 | 1.1 | 0.043 | COc1ccc([C@@H](CCCNC(=O)C2CCCC2)N2C(=O)c3cccc(N4CCN([C@H](C)c5ccccc5)CC4)c3C2=O)cc1OC [Cpd 179, (R)-cyclopentanecarboxylic acid (4-(3,4-dimethoxy-phenyl)-4-{1,3-dioxo-4-[4-(1R)-(1-phenyl-ethyl)-piperazin-1-yl]-1,3-dihydro-isoindol-2-yl}-butyl)-amide] | 
5 | 0.097 | 0.76 | 0.097 | COc1ccc(C(CCCNS(=O)(=O)c2ccccc2)N2C(=O)c3cccc(N4CCN([C@H](C)c5ccccc5)CC4)c3C2=O)cc1OC (stereo partly drawn) [Cpd 96, N-(4-(3,4-dimethoxy-phenyl)-4-{1,3-dioxo-4-[4-(1R)-(1-phenyl-ethyl)-piperazin-1-yl]-1,3-dihydro-isoindol-2-yl}-butyl)-benzenesulfonamide] | 
6 | 0.013 | 0.3 | 0.1 | COc1ccc([C@@H](CCCNC(=O)c2c(C)noc2C)N2C(=O)c3cccc(N4CCN([C@H](C)c5ccccc5)CC4)c3C2=O)cc1OC [Cpd 164, (R)-3,5-dimethyl-isoxazole-4-carboxylic acid (4-(3,4-dimethoxy-phenyl)-4-{1,3-dioxo-4-[4-(1R)-(1-phenyl-ethyl)-piperazin-1-yl]-1,3-dihydro-isoindol-2-yl}-butyl)-amide] | 

Source: US8193191B2, “Urotensin II receptor antagonists” (Janssen Pharmaceutica N.V., priority 2006, dated 2012)
